The values that follow come from patent publication US5168102A, “Endocrine manipulation to improve body composition of poultry” (priority 1990, dated 1992).

A short description of data set [1]: Example 1: growth and feed efficiency of broiler cockerels fed thyroid-active substances with or without daily ncGH injection. Type of data set: in vivo, broiler cockerels (Ross X Arbor Acre strain). The note with it: for BW (body weight): mean ±SEM; for ADFC (average daily feed consumption) / ADG (average daily weight gain) / FTG (feed-to-gain ratio): 21 days. The text has this: (§1) The purpose of this study was to determine the effect manipulating blood levels of thyroid hormones and/or growth hormone on growth performance and body composition of broiler chickens. […] Purified natural chicken growth hormone (ncGH) was obtained from the Research and Education Center, Harbor-UCLA Medical Center, Torrance, Calif. […] The premix (200 g) was then used to prepare 50 kg batches of each experimental diet according to the formula for broiler-finisher ration described in Table 1. The diet containing 0.5% PTU was prepared by mixing 250 g of PTU into 49.75 kg of the basal ration (Table 1).
(§2) Broiler cockerels (Ross X Arbor Acre strain) were raised to 3 weeks-of-age in a battery-brooder and then transferred to wire grow-out cages (4 birds/pen) held in two controlled-environment rooms (10 pens/room). Beginning at 3 weeks of age, eight birds (2 pens of 4 birds) were randomly assigned to each of 10 treatments. The chickens were provided the experimental diets and water ad libitum. […] For injection, the ncGH was reconstituted in sterile 0.025M sodium bicarbonate buffer (pH 9.8). The 10 treatments were administered for 21 days (i.e., from 3 to 6 weeks of age).
(§3) Measurement of body weight and feed consumption at weekly intervals allowed calculation of the average daily gain (ADG, g/bird/day), average daily feed consumption (ADFC, g/bird/day) and the feed-to-gain ratio (FIG, kg feed/kg gain) over the 21 day experimental period. Blood samples were taken each week (4, 5, and 6 weeks) just before (pre-injection) and 4 hours post-injection of ncGH. […] At the conclusion of the study, birds were killed and the carcasses frozen for proximate analysis. The frozen carcasses were ground in a meat grinder and aliquots of each ground carcass taken for determination of moisture, protein, fat and ash by established analytical procedures (Official Method of Analysis, Edition 13, W. Horwitz ed., Association of Official Analytical Chemist, Washington, D.C., 1980). Body composition data are presented as a percent of live weight at 6 weeks-of-age. Least squares regression analysis was used to test for significant differences (P<0.05) due treatment.

A short description of data set [2]: Example 1: body composition (proximate analysis of carcass). Type of data set: in vivo, broiler cockerels (Ross X Arbor Acre strain). The note with it: for Body composition: Ash / Body composition: Fat / Body composition: Protein / Body composition: Water: N = 8.
Text: as §1, §2, §3

The nature of data set [3]: Example 1: plasma hormone concentrations (radioimmunoassays). The note with it: for average plasma T3 level: Group 1; for I/G Molar Ratio / plasma Glucagon (G) / plasma Insulin (I): N = 24.
Text: as §1, §2, §3

For data set [4] the following is noted: i.v., 21 days, cited from earlier work; for growth rate and feed efficiency: TRH 1 or 10 μg/kg/day, GRF 10 μg/kg/day, alone or in combination.
For data set [5] the following is noted: at the doses tested. The text has this: Referring now to broiler chickens as a benchmark for the beneficial effects of this invention, it must be noted that these chickens grow from a weight of 30 to 50 grams at hatching to about 1.5-3 or even as much as 5 kilograms of body weight at market age. Of this market weight, 15-20 wt.-% is protein, 2-3 wt.-% is inorganic (showing up as ash in proximate analysis of body composition), and more than 10 wt.-% (e.g. 10-20 wt.-%) is fat, which means that the protein:fat ratio (by weight) is likely to be at or below 1.5:1 and certainly well below 2:1.

The next data set relates to receptor. The note with it: cited from earlier work.
The conditions of data set [6]: supplemented diets; cited from earlier work.
For data set [7] the following is noted: injection, finishing pigs; cited from earlier work.
Data set [8] can be described thus: Example 2: plasma hormone concentrations. Type of data set: in vivo, broiler cockerels (Ross X Arbor Acre). The note with it: 4 hours post-injection of 100 μg ncGH/kg BW at 4, 5 and 6 weeks. How it is done:
(§4) Forty-eight 3-week-old broiler cockerels (Ross X Arbor Acre) were randomly divided into four treatment groups that contained three pens of four birds. The birds were housed in a controlled-environment room under a 20 hour light/4 hour dark cycle with feed and water provided ad libitum.
(§5) The preparation of ncGH used in this study was from the same lot used in Example 1.
(§6) Body weights and feed consumption was determined at weekly intervals although the ADG, ADFC and FTG ratio was determined over the 21 day period. […] At the conclusion of the study (6 weeks-of-age), birds were killed and the abdominal fat removed and weighed. The liver and abdominal fat were returned to the carcass which was frozen for proximate analysis as described in […]

Data set [9] can be described thus: Example 2: final body weight, liver, abdominal fat and body composition. The class given is in vivo, broiler cockerels (Ross X Arbor Acre). How it is done:
as §4, §5, §6

Data set [10] in a line: Example 2: growth and feed efficiency, dietary T3 and ncGH injection. Type of data set: in vivo, broiler cockerels (Ross X Arbor Acre). How it is done:
as §4, §5, §6

The mark [11] stands for this setting: 1 ppm T3, 1 ppm T4, 5 ppm TRH or 0.5% PTU in feed, 3 to 6 weeks of age, Group 1.
Where [12] appears, read: Group 1, dietary, 6 weeks-of-age.
Where [13] appears, read: Group 2, with daily ncGH injection.
The mark [14] stands for this setting: 1 ppm T3 and/or ncGH 100 μg/kg/day, 21 days.

No end group written: not given here.

As for `NC(=O)[C@@H]1CCCN1C(=O)[C@H](Cc1c[nH]cn1)NC(=O)[C@@H]1CCC(=O)N1` [TRH, L-pyroglutamyl-L-histidyl-L-prolinamide], the “BW (body weight)” value in [1] (setting [11]) is recorded as 1.85 ± .08 kg. For the same molecule, in data set [1] (Group 1, dietary), the “ADFC (average daily feed consumption)” value turned out to be 125.2 ± 5.5 g/bird/day, the “ADG (average daily weight gain)” value is on record as 56.5 ± 0.2 g/bird/day and the “FTG (feed-to-gain ratio)” value turned out to be 2.21 ± 0.1 kg feed/kg gain. Further, in data set [1] (vs CF group, not significant), the “ADFC rate, increase” value was 11%; the “ADG, increase” value was 9%; the “body weight (BW), increase” value is given as 6%. In addition, in data set [2] (setting [12]), the “Body composition: Ash” value is listed as 2.34 ± .06 % BW, the “Body composition: Fat” value is reported as 13.6 ± .88 % BW, the “Body composition: Protein” value is listed as 18.1 ± .21 % BW and the “Body composition: Water” value is 65.5 ± .73 % BW. In data set [2] (vs CF group), the “body fat content, increase” value was 12%. In addition, the “average plasma T3 level” value in [3] came out at 3 ng/mL. Further, in data set [3] (Group 1, dietary), the “I/G Molar Ratio” value amounted to 1.68, the “plasma Glucagon (G)” value was determined as 295 pg/mL and the “plasma Insulin (I)” value was 814 pg/mL. Also, in [4], the “plasma GH levels” value was “elevated plasma GH levels”; the “growth rate and feed efficiency” value is reported as “failed to stimulate growth rate or improve feed efficiency”. Moreover, in data set [5], the “effect on protein:fat ratio” value was “seemed to decrease the protein:fat ratio”.

With `O=C(O)Cc1cc(I)c(Oc2cc(I)c(O)c(I)c2)c(I)c1` [Tetrac], the “metabolic activity of thyroid hormones” value in the data set on receptor was “most active compounds of formula I”.

For the molecule `N[C@@H](Cc1cc(I)c(Oc2cc(I)c(O)c(I)c2)c(I)c1)C(=O)O` [T4, 3-[4-(4-hydroxy-3,5-diiodophenoxy)-3,5-diiodophenyl]-L-alanine], the “metabolic activity of thyroid hormones” value with receptor is “without significant metabolic activity”. In data set [6], the “depressed growth rate in dwarf strains” value is on record as “restored to normal”. Further, in data set [1] (setting [11]), the “BW (body weight)” value is given as 1.76 ± .04 kg. Moreover, in data set [1] (Group 1, dietary), the “ADFC (average daily feed consumption)” value was 108.4 ± 3.6 g/bird/day and the “ADG (average daily weight gain)” value was 51.9 ± 3.3 g/bird/day. For the same molecule, in [2] (setting [12]), the “Body composition: Ash” value is 2.35 ± .03 % BW, the “Body composition: Fat” value is 12.9 ± .41 % BW, the “Body composition: Protein” value is 18.2 ± .31 % BW and the “Body composition: Water” value is reported as 65.8 ± .29 % BW. In addition, the “average plasma T3 level” value in data set [3] is 3 ng/mL. In data set [3] (Group 1, dietary), the “plasma Glucagon (G)” value turned out to be 318 pg/mL and the “plasma Insulin (I)” value was 776 pg/mL.

As to “GRF: GH-releasing factor; human GRF is a 44 amino acid polypeptide hormone (YADAIFTNSYRKVLGQLSARKLLQDIMSRQQGESNQERGARARL-NH2; ends and bridges not checked; UniProt P01286 32-75, looked up)”, in data set [4], the “plasma GH levels” value is listed as “elevated plasma GH levels”; the “growth rate and feed efficiency” value is reported as “failed to stimulate growth rate or improve feed efficiency”.

On to `O=C(O)Cc1cc(I)c(Oc2ccc(O)c(I)c2)c(I)c1` [Triac], for which the “metabolic activity of thyroid hormones” value in the data set with receptor is “most active compounds of formula I”.

B1: pGH: purified porcine growth hormone (pGH) (protein, UniProt P01248 27-216, looked up)
Somatotropin: FPAMPLSSLFANAVLRAQHLHQLAADTYKEFERAYIPEGQRYSIQNAQAAFCFSETIPAPTGKDEAQQRSDVELLRFSLLLIQSWLGPVQFLSRVFTNSLVFGTSDRVYEKLKDLEEGIQALMRELEDGSPRAGQILKQTYDKFDTNLRSDDALLKNYGLLSCFKKDLHKAETYLRVMKCRRFVESSCAF
Take B1: in data set [7], the “carcass fat content, reduction” value was 18-25%; the “feed conversion, improvement” value is on record as 7-19%; the “growth rate, increase” value was 10-14%; the “muscle mass, increase” value was 24-36%.

B2: GH: Purified natural chicken growth hormone (ncGH) (protein, UniProt P08998 26-216, looked up)
Somatotropin: TFPAMPLSNLFANAVLRAQHLHLLAAETYKEFERTYIPEDQRYTNKNSQAAFCYSETIPAPTGKDDAQQKSDMELLRFSLVLIQSWLTPVQYLSKVFTNNLVFGTSDRVFEKLKDLEEGIQALMRELEDRSPRGPQLLRPTYDKFDIHLRNEDALLKNYGLLSCFKKDLHKVETYLKVMKCRRFGESNCTI
Take B2: the “average plasma GH concentration, fold over pre-injection” value in data set [8] is given as 4 times. Further, the “Body Weight (BW), final” value in data set [9] (1 ppm T3 and/or ncGH 100 μg/kg/day, 6 weeks-of-age, N = 12) is reported as 1.88 ± .051 kg. Besides, the “effect on final body weight, relative liver weight, abdominal fat” value in data set [9] (6 weeks-of-age) is on record as “did not affect growth performance, final body weight, relative liver weight or abdominal fat content”. Moreover, in data set [9] (N = 12), the “Abdominal Fat, relative weight” value was 2.56 ± .178 % BW; the “Body composition: Ash” value is on record as 2.23 ± .058 % BW; the “Body composition: Fat” value is given as 15.9 ± .32 % BW; the “Body composition: Protein” value is on record as 17.0 ± .17 % BW. In data set [9] (N = 12), the “Body composition: Water” value is on record as 63.7 ± .33 % BW and the “Liver, relative weight” value was 2.74 ± .102 % BW. In [1] (setting [13]), the “ADFC (average daily feed consumption)” value worked out at 115.8 ± 1.8 g/bird/day, the “ADG (average daily weight gain)” value was 57.0 ± 0.4 g/bird/day and the “FTG (feed-to-gain ratio)” value is 2.03 ± .02 kg feed/kg gain. For the same molecule, the “BW (body weight)” value in data set [1] (Group 2: daily i.m. 100 ug ncGH/kg with CF, 1 ppm T3, 1 ppm T4 or 5 ppm TRH in feed, 3 to 6 weeks) was 1.83 ± .04 kg. Further, the “feed efficiency, improvement” value in [1] (vs FTG ratio of CF+BI group (P<0.05)) was found to be 9%. Besides, in [10] (setting [14]), the ADFC is given as 115.4 ± 3.5 g/bird/day and the FTG is given as 2.18 ± .05 kg feed/kg gain. Further, the ADG in data set [10] (1 ppm T3 in feed and/or ncGH 100 μg/kg/day i.m., 3 to 6 weeks, mean ±SEM of 3 pens) was 53.0 ± 2.8 g/bird/day. The “effect on ADG, ADFC and FTG ratio” value in data set [10] (21 days) was “not affected”. In [2] (setting [13]), the “Body composition: Ash” value is reported as 2.20 ± .04 % BW, the “Body composition: Fat” value was 14.5 ± .52 % BW, the “Body composition: Protein” value is reported as 18.1 ± .15 % BW and the “Body composition: Water” value is 64.7 ± .51 % BW. The “average plasma GH concentration” value in data set [3] (4 hours post-injection of 100 μg ncGH/kg BW, Group 2) came out at 62 ng/mL. Besides, the “average plasma GH concentration, fold over pre-injection” value in data set [3] (4 hours post-injection of 100 μg ncGH/kg BW, Group 2 (P<0.05)) was 3 times. Also, in data set [3] (setting [13]), the “I/G Molar Ratio” value came to 2.28, the “plasma Glucagon (G)” value came to 298 pg/mL and the “plasma Insulin (I)” value worked out at 1107 pg/mL. Besides, the “effect on protein:fat ratio” value in data set [5] was “seemed to decrease the protein:fat ratio”.
